Here are results for 1 compound from US10662359B2, “Heat transfer fluids and methods of using same” (3M INNOVATIVE PROPERTIES COMPANY, priority 2017, dated 2020).

This series has as its system rats. As to the kind of experiment: 4 hour acute inhalation toxicity in rats. It counts as in vivo. The settings on record: rats dosed at 10,000 or 619 ppm vol/vol in air for 4 hours, 14 day post-dose monitoring; LC-50 estimated, interpreted as highest exposure level tested. The protocol: The 4 hour acute inhalation toxicity of Example 3 and CE2 in rats was determined by dosing animals at 10,000 or 619 ppm vol/vol in air (per Table 4) for 4 hours followed by 14 day post-dose monitoring. Based on the animal test results and the vapor concentration of the test compound, the LC-50 values were estimated. The NOEL (No Effect Level) value of CE3 was obtained from du Pont de Nemours trade literature. The 4 hr inhalation LC-50 value for CE4 was obtained from Solvay MSDS.

Take `FC(=C(C(F)(F)F)C(F)(F)C(F)(F)C(F)(F)F)C(F)(C(F)(F)F)C(F)(F)F` [Example 3, 1,1,1,2,3,5,5,6,6,7,7,7-dodecafluoro-2,4-bis(trifluoromethyl)hept-3-ene]: the “LC-50 (4 hr Inhalation in Rats)” value is on record as >10,000 ppmv.
